Assay results reported in patent US20050282743A1, “Molecular interactions in cells” (Arbor Vita Corporation, priority 2001, published 2005).
Ends that are not written are not given here. Peptide text beside a SMILES is read from it. * marks the point of attachment. Biotin = O=C1N[C@H]2[C@H](CS[C@H]2CCCCC(=O)*)N1

Tests used:
Type in all cases: binding
[1] = molecular target: T1, PDZ protein (GST-PDZ fusion) (Homo sapiens, UniProt Q13424); experiment: G' assay (10 uM PL peptide), results of TABLE 7 and TABLE 12; conditions: PDZ Synt. 1 alpha, PDZ Domain 1
T1 construct: made in house; host or cells: E. coli (DH5alpha, BL21 or JM109)
T1 sequence (Q13424 1-505): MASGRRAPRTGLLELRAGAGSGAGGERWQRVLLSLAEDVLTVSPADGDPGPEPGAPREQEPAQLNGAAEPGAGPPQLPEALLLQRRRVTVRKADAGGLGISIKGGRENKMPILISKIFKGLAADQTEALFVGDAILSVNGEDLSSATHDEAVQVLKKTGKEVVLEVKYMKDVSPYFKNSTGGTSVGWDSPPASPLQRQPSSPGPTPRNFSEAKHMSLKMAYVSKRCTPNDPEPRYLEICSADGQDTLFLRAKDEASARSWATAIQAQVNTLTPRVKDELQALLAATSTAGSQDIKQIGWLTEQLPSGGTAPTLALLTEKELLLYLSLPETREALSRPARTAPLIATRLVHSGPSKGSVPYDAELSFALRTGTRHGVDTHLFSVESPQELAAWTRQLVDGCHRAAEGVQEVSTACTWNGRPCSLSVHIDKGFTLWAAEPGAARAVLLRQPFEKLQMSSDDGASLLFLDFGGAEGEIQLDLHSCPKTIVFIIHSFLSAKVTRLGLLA
Summary of the method: (§1)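 Biotinylated PL peptides at 10 uM (vs 20 uM in G^0 assay) bound to GST-PDZ fusions; PDZ protein at 5 ug/ml unless another concentration listed. Bound peptide read as A450 nm, classified 0–5 (0 = A450 0; 5 = A450 >4 repeated).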

[2] = tested on: PDZ protein (GST-PDZ fusion); experiment: as above; conditions: PDZ SHANK, PDZ Domain 1
Summary of the method: as §1

[3] = molecular target: T2, PDZ protein (GST-PDZ fusion) (Homo sapiens, UniProt Q6P0Q8); experiment: as above
T2 construct: made in house; host or cells: E. coli (DH5alpha, BL21 or JM109)
Summary of the method: as §1

[4] = molecular target: T3, PDZ protein (GST-PDZ fusion) (Homo sapiens, UniProt Q13796); experiment: as above; conditions: PDZ hAPXL, PDZ Domain 1
T3 construct: made in house; host or cells: E. coli (DH5alpha, BL21 or JM109)
Summary of the method: as §1

[5] = molecular target: T4, PDZ protein (GST-PDZ fusion) (Homo sapiens, UniProt Q5T2W1); experiment: as above; conditions: PDZ PDZK1, PDZ Domain 2, 3, 4
T4 construct: made in house; host or cells: E. coli (DH5alpha, BL21 or JM109)
T4 sequence (Q5T2W1 1-519): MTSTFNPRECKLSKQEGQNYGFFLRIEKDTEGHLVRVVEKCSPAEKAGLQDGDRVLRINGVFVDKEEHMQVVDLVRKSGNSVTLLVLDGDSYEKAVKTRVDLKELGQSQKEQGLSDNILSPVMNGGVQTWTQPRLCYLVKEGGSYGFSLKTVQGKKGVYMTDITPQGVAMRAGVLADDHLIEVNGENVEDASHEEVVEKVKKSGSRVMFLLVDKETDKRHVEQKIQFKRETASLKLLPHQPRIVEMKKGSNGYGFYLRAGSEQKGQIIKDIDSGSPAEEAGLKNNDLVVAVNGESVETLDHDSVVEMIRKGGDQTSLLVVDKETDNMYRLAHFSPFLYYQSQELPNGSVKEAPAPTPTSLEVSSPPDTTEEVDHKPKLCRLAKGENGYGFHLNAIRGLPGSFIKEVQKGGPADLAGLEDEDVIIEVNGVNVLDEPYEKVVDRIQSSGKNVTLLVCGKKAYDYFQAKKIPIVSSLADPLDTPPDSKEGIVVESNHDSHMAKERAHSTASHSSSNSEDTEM
Summary of the method: as §1

[6] = molecular target: T5, PDZ protein (GST-PDZ fusion) (Homo sapiens, UniProt P57105); experiment: as above; conditions: PDZ Outer Membrane, PDZ Domain 1
T5 construct: made in house; host or cells: E. coli (DH5alpha, BL21 or JM109)
T5 sequence (P57105 1-145): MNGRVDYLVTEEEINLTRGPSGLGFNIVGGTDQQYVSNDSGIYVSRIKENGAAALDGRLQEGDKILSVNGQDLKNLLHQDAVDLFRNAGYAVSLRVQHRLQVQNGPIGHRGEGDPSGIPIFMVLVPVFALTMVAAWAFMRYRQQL
Summary of the method: as §1

[7] = molecular target: T6, PDZ protein (GST-PDZ fusion) (Homo sapiens, UniProt Q9P202); experiment: as above; conditions: PDZ KIAA1526, PDZ Domain 1
T6 construct: made in house; host or cells: E. coli (DH5alpha, BL21 or JM109)
T6 sequence (Q9P202 1-907): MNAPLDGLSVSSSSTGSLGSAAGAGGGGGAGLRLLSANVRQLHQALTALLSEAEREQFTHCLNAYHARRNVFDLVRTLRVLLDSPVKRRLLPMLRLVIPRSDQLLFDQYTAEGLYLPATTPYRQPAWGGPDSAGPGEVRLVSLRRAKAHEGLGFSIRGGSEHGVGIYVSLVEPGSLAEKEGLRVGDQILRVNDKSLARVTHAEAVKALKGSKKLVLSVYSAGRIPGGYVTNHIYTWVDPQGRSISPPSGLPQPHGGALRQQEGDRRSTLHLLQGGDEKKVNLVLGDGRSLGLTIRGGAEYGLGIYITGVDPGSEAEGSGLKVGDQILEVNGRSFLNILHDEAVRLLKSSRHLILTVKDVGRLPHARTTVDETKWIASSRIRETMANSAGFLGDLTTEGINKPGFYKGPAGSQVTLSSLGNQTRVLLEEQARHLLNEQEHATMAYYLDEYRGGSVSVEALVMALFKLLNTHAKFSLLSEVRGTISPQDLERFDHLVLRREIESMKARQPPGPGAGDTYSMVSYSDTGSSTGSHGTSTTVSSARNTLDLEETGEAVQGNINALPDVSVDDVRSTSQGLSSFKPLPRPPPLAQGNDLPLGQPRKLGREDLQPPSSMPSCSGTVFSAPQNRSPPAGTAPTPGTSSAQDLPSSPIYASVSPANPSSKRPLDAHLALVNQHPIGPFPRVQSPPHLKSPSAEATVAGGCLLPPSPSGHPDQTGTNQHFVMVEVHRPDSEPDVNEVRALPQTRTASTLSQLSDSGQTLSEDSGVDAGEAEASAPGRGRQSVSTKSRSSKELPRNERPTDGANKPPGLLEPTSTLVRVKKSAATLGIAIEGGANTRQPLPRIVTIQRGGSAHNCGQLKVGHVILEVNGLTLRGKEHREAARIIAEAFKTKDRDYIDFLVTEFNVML
Summary of the method: as §1

[8] = molecular target: T7, PDZ-domain polypeptide (GST/PDZ fusion protein) (Homo sapiens, UniProt Q6P0Q8); experiment: Apparent affinity (Kd) by titration of PL peptide in the G assay; conditions: PDZ KIAA0807(S), PDZ Domain 1; titration of the PL peptide; read-out: Peptide Optimal Conc (Kd, dissociation constant)
T7 construct: made in house; host or cells: E. coli (DH5alpha, BL21 or JM109)
Method: The third column labeled “Peptide Optimal Concentration” in the tables is a number reflective of the binding interaction between the PL protein and PDZ protein. […] The column labeled “Protein Optimal Concentration” refers to the protein concentration used to assay PL interaction (in ug/ml); a ‘0’ is indicative of 5 ug/ml protein concentration; any other value represents the concentration (in ug/ml) used to determine the dissociation constant for a given interaction.
The “A” and “G” assays described supra can be used to determine the “apparent affinity” of binding of a PDZ ligand peptide to a PDZ-domain polypeptide. Apparent affinity is determined based on the concentration of one molecule required to saturate the binding of a second molecule (e.g., the binding of a ligand to a receptor). Two particularly useful approaches for quantitation of apparent affinity of PDZ-ligand binding are provided infra.
In cases where satisfying the above criteria proves difficult, an alternative approach (infra) can be used.
(1) A fixed concentration of a PDZ-domain polypeptide and increasing concentrations of a labeled PL peptide (labeled with, for example, biotin or fluorescein, see TABLE 9 for representative peptide amino acid sequences) are mixed together in solution and allowed to react. In certain assays, peptide concentrations are 0.1 uM, 1 uM, 10 uM, 100 uM, 1 mM. In other assays, appropriate reaction times can range from 10 minutes to 2 days at temperatures ranging from 4° C. to 37° C. In some instances, the identical reaction can also be carried out using a non-PDZ domain-containing protein as a control (e.g., if the PDZ-domain polypeptide is fusion protein, the fusion partner can be used).
(2) PDZ-ligand complexes can be separated from unbound labeled peptide using a variety of methods known in the art.
(3) The PDZ-ligand complex is detected based on presence of the label on the peptide ligand using a variety of methods and detectors known to one of skill in the art. For example, if the label is fluorescein and the separation is achieved using HPSEC, an in-line fluorescence detector can be used. The binding can also be detected as described supra for the G assay.

T2 sequence (Q6P0Q8 whole entry, the tested form may be a part): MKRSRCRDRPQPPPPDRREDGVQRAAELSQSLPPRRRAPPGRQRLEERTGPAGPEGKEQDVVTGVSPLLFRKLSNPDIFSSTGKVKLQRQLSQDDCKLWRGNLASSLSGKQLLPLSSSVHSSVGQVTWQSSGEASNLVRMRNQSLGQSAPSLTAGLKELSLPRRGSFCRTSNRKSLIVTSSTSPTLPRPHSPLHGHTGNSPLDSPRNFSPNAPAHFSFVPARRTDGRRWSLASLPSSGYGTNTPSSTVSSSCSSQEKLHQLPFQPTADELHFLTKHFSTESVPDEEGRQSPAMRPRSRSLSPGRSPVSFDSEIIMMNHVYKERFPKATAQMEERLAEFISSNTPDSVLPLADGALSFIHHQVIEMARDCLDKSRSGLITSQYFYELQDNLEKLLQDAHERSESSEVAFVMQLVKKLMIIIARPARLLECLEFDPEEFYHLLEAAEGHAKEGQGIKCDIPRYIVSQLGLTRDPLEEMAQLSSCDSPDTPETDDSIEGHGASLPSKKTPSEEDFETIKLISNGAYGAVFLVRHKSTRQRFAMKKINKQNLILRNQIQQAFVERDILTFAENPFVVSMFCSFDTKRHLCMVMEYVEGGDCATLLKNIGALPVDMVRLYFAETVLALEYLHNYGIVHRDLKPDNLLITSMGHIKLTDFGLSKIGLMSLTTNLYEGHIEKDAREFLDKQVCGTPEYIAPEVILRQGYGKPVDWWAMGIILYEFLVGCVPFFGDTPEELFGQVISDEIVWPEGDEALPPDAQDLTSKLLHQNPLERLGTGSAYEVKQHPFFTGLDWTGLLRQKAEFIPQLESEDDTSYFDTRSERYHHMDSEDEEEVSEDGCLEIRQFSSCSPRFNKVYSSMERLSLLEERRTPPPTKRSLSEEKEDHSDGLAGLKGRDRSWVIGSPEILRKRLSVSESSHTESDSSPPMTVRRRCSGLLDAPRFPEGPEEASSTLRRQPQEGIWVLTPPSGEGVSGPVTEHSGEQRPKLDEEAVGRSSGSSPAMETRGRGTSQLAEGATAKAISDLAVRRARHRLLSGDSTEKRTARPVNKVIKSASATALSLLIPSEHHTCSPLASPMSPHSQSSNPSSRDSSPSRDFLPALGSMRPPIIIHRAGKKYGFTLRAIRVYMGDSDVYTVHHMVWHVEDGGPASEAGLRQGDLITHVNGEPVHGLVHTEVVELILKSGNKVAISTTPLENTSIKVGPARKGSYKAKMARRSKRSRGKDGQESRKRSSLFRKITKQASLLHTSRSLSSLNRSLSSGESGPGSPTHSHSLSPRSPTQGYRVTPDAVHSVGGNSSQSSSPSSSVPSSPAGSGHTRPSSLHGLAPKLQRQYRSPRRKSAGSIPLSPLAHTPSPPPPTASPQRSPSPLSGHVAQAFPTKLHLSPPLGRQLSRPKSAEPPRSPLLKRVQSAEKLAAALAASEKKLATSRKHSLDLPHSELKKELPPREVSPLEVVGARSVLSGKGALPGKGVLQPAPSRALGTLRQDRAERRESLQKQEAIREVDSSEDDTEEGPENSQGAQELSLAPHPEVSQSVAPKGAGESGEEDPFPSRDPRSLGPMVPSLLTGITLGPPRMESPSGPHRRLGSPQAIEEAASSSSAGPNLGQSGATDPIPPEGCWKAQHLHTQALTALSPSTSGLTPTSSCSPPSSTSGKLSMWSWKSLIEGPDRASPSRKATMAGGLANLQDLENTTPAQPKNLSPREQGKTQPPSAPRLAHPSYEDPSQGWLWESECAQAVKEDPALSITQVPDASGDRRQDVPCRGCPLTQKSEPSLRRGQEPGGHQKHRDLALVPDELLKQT
T3 sequence (Q13796 whole entry, the tested form may be a part): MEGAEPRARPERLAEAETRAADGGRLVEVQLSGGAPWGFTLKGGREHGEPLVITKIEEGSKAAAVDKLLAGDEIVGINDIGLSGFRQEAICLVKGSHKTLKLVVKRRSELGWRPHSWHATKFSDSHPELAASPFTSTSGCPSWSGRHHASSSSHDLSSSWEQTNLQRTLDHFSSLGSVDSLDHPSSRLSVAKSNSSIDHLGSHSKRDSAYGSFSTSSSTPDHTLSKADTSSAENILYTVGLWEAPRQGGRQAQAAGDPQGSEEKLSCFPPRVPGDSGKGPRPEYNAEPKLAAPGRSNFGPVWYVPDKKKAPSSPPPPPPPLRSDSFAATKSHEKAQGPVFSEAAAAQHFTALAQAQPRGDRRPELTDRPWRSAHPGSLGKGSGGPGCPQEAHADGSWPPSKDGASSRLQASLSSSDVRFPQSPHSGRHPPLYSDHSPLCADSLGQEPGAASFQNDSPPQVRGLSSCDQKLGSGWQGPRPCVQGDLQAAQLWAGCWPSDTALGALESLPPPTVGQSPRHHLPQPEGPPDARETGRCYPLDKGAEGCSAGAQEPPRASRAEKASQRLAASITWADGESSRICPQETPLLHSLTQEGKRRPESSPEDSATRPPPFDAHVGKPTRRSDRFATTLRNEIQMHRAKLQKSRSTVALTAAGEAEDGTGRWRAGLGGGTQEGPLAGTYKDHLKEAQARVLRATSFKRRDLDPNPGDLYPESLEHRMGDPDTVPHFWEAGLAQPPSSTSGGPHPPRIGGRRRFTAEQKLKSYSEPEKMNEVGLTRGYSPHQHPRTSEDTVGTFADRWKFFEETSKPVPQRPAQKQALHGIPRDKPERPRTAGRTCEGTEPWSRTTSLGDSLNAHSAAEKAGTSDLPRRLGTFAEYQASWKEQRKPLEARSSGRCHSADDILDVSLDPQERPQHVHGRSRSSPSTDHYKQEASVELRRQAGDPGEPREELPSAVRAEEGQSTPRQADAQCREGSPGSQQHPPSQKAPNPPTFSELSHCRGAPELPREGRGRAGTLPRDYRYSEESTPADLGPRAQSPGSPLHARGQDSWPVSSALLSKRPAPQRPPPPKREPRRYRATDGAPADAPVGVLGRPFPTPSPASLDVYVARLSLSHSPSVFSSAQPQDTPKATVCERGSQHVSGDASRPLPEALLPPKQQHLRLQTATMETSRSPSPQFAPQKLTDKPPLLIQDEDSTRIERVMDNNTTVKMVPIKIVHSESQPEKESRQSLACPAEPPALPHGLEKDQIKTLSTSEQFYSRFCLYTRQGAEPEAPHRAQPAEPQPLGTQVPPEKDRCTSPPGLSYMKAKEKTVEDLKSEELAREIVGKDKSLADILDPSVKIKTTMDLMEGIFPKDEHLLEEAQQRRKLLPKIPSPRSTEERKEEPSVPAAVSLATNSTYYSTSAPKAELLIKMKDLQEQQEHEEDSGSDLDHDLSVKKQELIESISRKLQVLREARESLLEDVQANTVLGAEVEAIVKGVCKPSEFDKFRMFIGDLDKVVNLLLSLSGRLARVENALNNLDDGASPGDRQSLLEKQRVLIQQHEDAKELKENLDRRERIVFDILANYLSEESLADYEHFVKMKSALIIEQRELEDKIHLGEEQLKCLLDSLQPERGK

Molecule	Classification [1]	Classification [2]	Classification ([3]; PDZ KIAA807)	Classification ([3]; PDZ KIAA0807(S), PDZ Domain 1)	Classification [4]	Classification [5]	Classification [6]	Classification ([3]; PDZ KIAA807, PDZ Domain not given)	Classification [7]	Kd [8] [µM]
DAKLKSDGTIAAITEKETHF (Biotin-DAKLKSDGTIAAITEKETHF) [GABA transporter 3]	1 (A450 nm 0-1)	1 (A450 nm 0-1)	1 (A450 nm 0-1)	1 (A450 nm 0-1)	1 (A450 nm 0-1)	1 (A450 nm 0-1)	–	–	–	–
CC[C@H](C)[C@H](NC(=O)[C@H](CO)NC(=O)[C@@H](NC(=O)CNC(=O)[C@H](CCCNC(=N)N)NC(=O)[C@H](CC(=O)O)NC(=O)[C@@H]1CCCN1C(=O)[C@H](CC(=O)O)NC(=O)[C@H](CC(N)=O)NC(=O)CNC(=O)[C@H](CC(C)C)NC(=O)[C@H](CC(N)=O)NC(=O)[C@H](CC(C)C)NC(=O)CNC(=O)[C@H](CC(C)C)NC(=O)[C@@H](NC(=O)[C@@H]1CCCN1C(=O)[C@@H](NC(=O)[C@@H]1CCCN1C(=O)[C@H](CCC(N)=O)NC(=O)CCCC[C@@H]1SC[C@@H]2NC(=O)N[C@@H]21)[C@@H](C)O)[C@@H](C)O)[C@@H](C)O)C(=O)O [GluR delta-2] (Biotin-QPTPTLGLNLGNDPDRGTSI-OH; C-terminus assumed)	–	–	–	4 (A450 nm 3-4)	–	–	2 (A450 nm 1-2)	3 (A450 nm 2-3)	2 (A450 nm 1-2)	4
